Experimental data from article PMC7756341, “Liposomal FRET Assay Identifies Potent Drug‐Like Inhibitors of the Ceramide Transport Protein (CERT)” (Chemistry (Weinheim an Der Bergstrasse, Germany), 2020).
“And” between values parts separate entries of the source, which are not always exact repeats. Identical values can stand only once.

Tested on: HeLa cells
Assay: Sphingolipid content of treated HeLa cells by quantitative mass spectrometry
Format: cell-based
Conditions: for Cer16 / Cer18 / Cer20 / Cer22 / Cer24 / Cer24:1 / Cer total / S1P / SM16 / SM18 / SM20 / SM22 / SM24 / SM24:1 / SM total / Sph / ratio total SM/Cer: HeLa, 42h, single replicates; for Cer16 / Cer18 / Cer20 / Cer22 / Cer24 / Cer24:1 / Cer total / S1P / SM16 / SM18 / SM20 / SM22 / SM24 / SM24:1 / SM total / Sph: 500.000 cells per sample
Protocol: 5.2 Cellular experiment for lipidomic analysis
Hela cells were cultured in six well plates (177000 cells per well) under standard growth conditions (DMEM with 4mM L-glutamine, 10% FBS, 1% Penicillin-Streptomycin; CO2 incubator with […]
37°C, 5% CO2). […]
After incubation, […]
the adherent cells were washed twice with ice-cold PBS and harvested by treatment with trypsin.
Cells were counted using a Countess II cell counter ( Invitrogen) and adjusted to 500.000 cells per sample. Each sample was then treated as described below.
6. Details for experimental lipidomics
Cells were subjected to lipid extraction using 1.5 mL methanol/chloroform (2:1, v:v) as described. The extraction solvent contained C17-ceramide (Cer17) and C16 -d31-sphingomyelin (d31-SM16) (both Avanti Polar Lipids, Alabaster, USA) as internal standards. Chromatographic separations were achieved on a 1260 Infinity HPLC (Agilent Technologies, Waldbronn, Germany) equipped with a Poroshell 120 EC-C8 column (3.0 × 150 mm, 2.7 µm; Agilent Technologies). A mobile phase system consisting of water (solvent A) and acetonitrile/methanol (1:1, v:v; solvent B), both acidified with 0.1% formic acid, was used for gradient elution at an initial composition of 40:60 (A:B, v:v) and a flow rate of 0.5 mL/min. MS/MS analyses were carried out using a 6490 triple-quadrupole mass spectrometer (Agilent Technologies) operating in the positive electrospray ionization mode (ESI+). The following ion source parameters were set: sheath gas temperature, 375 °C; sheath gas flow, 12 L/min of nitrogen; nebulizer pressure, 30 psi; drying gas temperature, 200 °C; drying gas flow, 15 L/min of nitrogen; capillary voltage, 4000 V; nozzle voltage, 1500 V; iFunnel high pressure RF voltage, 150 V and iFunnel low pressure RF voltage, 60 V. The following mass transitions were recorded (collision energies of 25 eV for all transitions): ceramides: m/z […]
with MassHunter Software (Agilent Technologies). Significance of differences between two samples was calculated by student’s t -test. Asterisks indicate significant differences between treated and untreated samples: * p<0.05; ** p<0.01; *** p<0.005.
Table S1. Sphingolipid content of treated cells.
(1 picture or pasted object on this page, not shown here)

In the case of `O=C(NC1CCN(CCCCC2(C(=O)NCC(F)(F)F)c3ccccc3-c3ccccc32)CC1)c1ccccc1-c1ccc(C(F)(F)F)cc1` [8E8, lomitapide], the “effect on sphingomyelin at 5 μM” value (HeLa cells, 5 μM) is reported as “drastic reduction”, the “effect on total sphingomyelin” value (HeLa cells, 48 hours, serum-reduced medium) is reported as “dose‐dependent reduction” and the “potency on relation of total sphingomyelin to ceramide compared to HPA-12” value (HeLa cells, all concentrations) is reported as “increased potency”. For the same molecule, the Cer16 (1 µM) was 66,02 pmol/sample and 57,09 pmol/sample and 60,15 pmol/sample, the Cer18 (1 µM) was 7,66 pmol/sample and 6,67 pmol/sample and 6,95 pmol/sample and the Cer20 (1 µM) was 2,25 pmol/sample and 1,77 pmol/sample and 2,84 pmol/sample. For the same molecule, the Cer22 (1 µM) was 14,47 pmol/sample and 13,05 pmol/sample and 13,35 pmol/sample, the Cer24 (1 µM) was 34,96 pmol/sample and 30,93 pmol/sample and 30,90 pmol/sample and the “Cer24:1” value (1 µM) was 73,09 pmol/sample and 65,48 pmol/sample and 68,22 pmol/sample. For the same molecule, the Cer total (1 µM) was 198,45 pmol/sample and 178,06 pmol/sample and 179,34 pmol/sample, the S1P (1 µM) was 1,12 pmol/sample and 1,00 pmol/sample and 0,85 pmol/sample and the SM16 (1 µM) was 1825,61 pmol/sample and 1823,48 pmol/sample and 1739,12 pmol/sample. The SM18 (1 µM) was 59,37 pmol/sample and 58,79 pmol/sample and 52,57 pmol/sample, the SM20 (1 µM) was 20,60 pmol/sample and 20,35 pmol/sample and 17,81 pmol/sample and the SM22 (1 µM) was 115,26 pmol/sample and 124,65 pmol/sample and 105,99 pmol/sample. The SM24 (1 µM) was 173,05 pmol/sample and 183,46 pmol/sample and 158,17 pmol/sample, the “SM24:1” value (1 µM) was 817,85 pmol/sample and 842,40 pmol/sample and 760,17 pmol/sample and the SM total (1 µM) was 3011,74 pmol/sample and 3053,13 pmol/sample and 2833,83 pmol/sample. The Sph (1 µM) was 3,57 pmol/sample and 3,81 pmol/sample and 3,42 pmol/sample, the “ratio total SM/Cer” value (1 µM) was 16,8 and 15,4 and 15,9 and the Cer16 (2.5 µM) was 74,51 pmol/sample and 82,98 pmol/sample and 79,41 pmol/sample. For the same molecule, the Cer18 (2.5 µM) was 8,90 pmol/sample and 10,02 pmol/sample and 9,50 pmol/sample, the Cer20 (2.5 µM) was 2,09 pmol/sample and 2,26 pmol/sample and 2,11 pmol/sample and the Cer22 (2.5 µM) was 14,83 pmol/sample and 17,07 pmol/sample and 15,69 pmol/sample. For the same molecule, the Cer24 (2.5 µM) was 32,62 pmol/sample and 36,00 pmol/sample and 36,33 pmol/sample, the “Cer24:1” value (2.5 µM) was 74,15 pmol/sample and 79,98 pmol/sample and 77,75 pmol/sample and the Cer total (2.5 µM) was 207,10 pmol/sample and 228,30 pmol/sample and 220,79 pmol/sample. The S1P (2.5 µM) was 0,75 pmol/sample and 1,06 pmol/sample and 1,09 pmol/sample, the SM16 (2.5 µM) was 1630,84 pmol/sample and 1823,72 pmol/sample and 1666,50 pmol/sample and the SM18 (2.5 µM) was 53,11 pmol/sample and 57,73 pmol/sample and 55,13 pmol/sample. The SM20 (2.5 µM) was 19,44 pmol/sample and 21,11 pmol/sample and 18,70 pmol/sample, the SM22 (2.5 µM) was 103,91 pmol/sample and 113,22 pmol/sample and 105,74 pmol/sample and the SM24 (2.5 µM) was 157,53 pmol/sample and 168,83 pmol/sample and 156,81 pmol/sample. For the same molecule, the “SM24:1” value (2.5 µM) was 722,25 pmol/sample and 731,59 pmol/sample and 797,90 pmol/sample, the SM total (2.5 µM) was 2725,14 pmol/sample and 2696,43 pmol/sample and 2982,51 pmol/sample and the Sph (2.5 µM) was 3,63 pmol/sample and 3,39 pmol/sample and 3,50 pmol/sample. For the same molecule, the “ratio total SM/Cer” value (2.5 µM) was 12,3 and 13,0 and 13,1, the Cer16 (5 µM) was 89,79 pmol/sample and 129,48 pmol/sample and 69,03 pmol/sample and the Cer18 (5 µM) was 7,26 pmol/sample and 11,79 pmol/sample and 5,12 pmol/sample. For the same molecule, the Cer20 (5 µM) was 1,69 pmol/sample and 2,84 pmol/sample and 1,31 pmol/sample, the Cer22 (5 µM) was 12,62 pmol/sample and 18,55 pmol/sample and 9,43 pmol/sample and the Cer24 (5 µM) was 22,56 pmol/sample and 31,76 pmol/sample and 18,74 pmol/sample. The “Cer24:1” value (5 µM) was 66,19 pmol/sample and 87,40 pmol/sample and 47,19 pmol/sample, the Cer total (5 µM) was 200,11 pmol/sample and 281,82 pmol/sample and 150,81 pmol/sample and the S1P (5 µM) was 0,37 pmol/sample and 0,42 pmol/sample and 0,53 pmol/sample. The SM16 (5 µM) was 450,01 pmol/sample and 691,68 pmol/sample and 345,52 pmol/sample, the SM18 (5 µM) was 25,94 pmol/sample and 35,37 pmol/sample and 18,65 pmol/sample and the SM20 (5 µM) was 8,48 pmol/sample and 11,39 pmol/sample and 5,85 pmol/sample. The SM22 (5 µM) was 36,80 pmol/sample and 52,48 pmol/sample and 26,91 pmol/sample, the SM24 (5 µM) was 50,34 pmol/sample and 70,92 pmol/sample and 33,38 pmol/sample and the “SM24:1” value (5 µM) was 200,60 pmol/sample and 298,06 pmol/sample and 137,99 pmol/sample. For the same molecule, the SM total (5 µM) was 772,16 pmol/sample and 1159,90 pmol/sample and 568,29 pmol/sample, the Sph (5 µM) was 3,46 pmol/sample and 3,80 pmol/sample and 3,91 pmol/sample and the “ratio total SM/Cer” value (5 µM) was 3,9 and 4,1 and 3,8.
